Measurements taken from patent US20060020036A1, “Methods and compositions to promote bone homestasis” (priority 2004, published 2006).
Entries after “also recorded” stand apart in the source; their conditions may differ.

Molecular target: T1, NR1H3 (Homo sapiens, UniProt Q13133)
T1 construct: amplification of the complete open reading frame from ATG start codon to the stop codon of drugable genes; expressed in transfected cells; host or cells: primary human mesenchymal progenitor cells (MPCs), transduced with Ad5-NR1H3 and Ad-hCAR
T1 sequence (Q13133 1-447): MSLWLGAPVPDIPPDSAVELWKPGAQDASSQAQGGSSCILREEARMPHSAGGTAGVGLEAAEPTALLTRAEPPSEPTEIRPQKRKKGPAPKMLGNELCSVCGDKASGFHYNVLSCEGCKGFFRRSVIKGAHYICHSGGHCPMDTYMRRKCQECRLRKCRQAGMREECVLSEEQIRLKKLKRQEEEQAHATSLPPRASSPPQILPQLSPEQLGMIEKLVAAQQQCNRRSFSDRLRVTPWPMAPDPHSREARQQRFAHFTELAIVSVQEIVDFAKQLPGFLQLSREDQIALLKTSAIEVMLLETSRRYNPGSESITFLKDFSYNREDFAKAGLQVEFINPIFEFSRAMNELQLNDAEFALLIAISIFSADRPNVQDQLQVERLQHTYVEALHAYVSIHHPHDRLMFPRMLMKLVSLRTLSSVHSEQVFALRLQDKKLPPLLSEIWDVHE
Assay: AP assay: MPCs infected with Ad-NR1H3 and treated with ligand
Assay type: cell-based
Details: for up-regulation of endogenous alkaline phosphatase (AP) activity, dose-response: MPCs infected with Ad-NR1H3, ligand at different concentrations
Protocol: Mesenchymal progenitor cells (MPCs) differentiate into osteoblasts in the presence of appropriate factors (e.g. BMP2). An assay to screen for such factors is developed by monitoring the activity of alkaline phosphatase (AP) enzyme, an early marker in the osteoblast differentiation program. MPCs are seeded in 384 well plates and simultaneously co-infected one day later with adenoviruses encoding the human coxsackie and adenovirus receptor (hCAR; Ad-hCAR) and individual adenoviruses (Ad-cDNA) from the arrayed adenoviral knock-in collection containing cDNA sequences corresponding to genes from “drugable” classes like GPCR's, kinases, proteases, phosphodiesterases and nuclear hormone receptors (the FLeXSelect collection). The majority of these cDNAs are obtained by a PCR-based approach. Briefly, PCR primers are designed for amplification of the complete open reading frame from ATG start codon to the stop codon of drugable genes, based on sequence data present in the RefSeq database. Primers are mixed in an arrayed format at a PCR ready concentration in 96 well plates. As a template for the PCR reactions, placental, fetal liver, fetal brain and spinal cord cDNA libraries are used (from Invitrogen or Edge Biosystems). For the genes encoded by a single exon, PCR reactions are also performed on human genomic DNA. After the amplification reactions, the PCR products are purified with a 96-well PCR clean-up system (Wizard magnesil, Promega, Madison, Wis., USA), digested with the appropriate restriction enzymes (AscI, NotI or SalI restriction sites are included in the primers) and directly cloned into the adenoviral adapter plasmid pIspAdAdapt-10-Zeo (described in U.S. Pat. No. 6,340,595) using DNA ligation kit version 2 (TaKaRa, Berkeley, CA, USA). After a transformation and selection step, multiple clones per gene, one of which is sequence verified, are used for the preparation of plasmid DNA and subsequent generation of adenovirus according to the procedure described in WO99/64582.
Cellular AP activity is determined 6 days after the infection (or ligand addition—see below). The principle of the assays is depicted in FIG. 2. […] Six days after the start of infection or treatment with a ligand, endogenous alkaline phosphatase activity is measured following addition of 4-methylumbelliferyl […] (MUP) substrate.
The stocks of the Ad-control-viruses are generated in 96 well plates (control plate). […] Up-regulation of alkaline phosphatase is read at 6 days post infection (6 dpi): 15 μl 4-Methylumbelliferyl-phosphate (MUP, Sigma) is added to each well, the plates are incubated for 15 min at 37° C. and monitored for AP activity using a fluorescence plate reader (Fluostar, BMG). […]

Row | Compound | up-regulation of endogenous alkaline phosphatase (AP) activity, dose-response | induction of AP activity in different MPC isolates (MPCs from 4 different donors, Ad-NR1H3 MOI 2500 + T0901317, 6 days)
1 | CC(=O)Oc1ccc2c(c1)[C@@]1(C)CCC[C@](C)(C(=O)OC(=O)[C@@]3(C)CCC[C@]4(C)c5cc(OC(C)=O)ccc5CC[C@@H]34)[C@@H]1CC2 [APD, acetyl podocarpic dimer] | dose-response relation is observed; also recorded: AP activity is up-regulated; also recorded: Dose-dependent up-regulation of AP activity | –
2 | O=C(O)Cc1cccc(OCCCN(Cc2cccc(C(F)(F)F)c2Cl)CC(c2ccccc2)c2ccccc2)c1 [GW3965, 2-(3-(3-(N-(2-chloro-3-(trifluoromethyl)benzyl)-N-(2,2-diphenylethyl)amino)propoxy)phenyl)acetic acid] | dose-response relation is observed; also recorded: AP activity is up-regulated; also recorded: Dose-dependent up-regulation of AP activity | –
3 | O=S(=O)(c1ccccc1)N(CC(F)(F)F)c1ccc(C(O)(C(F)(F)F)C(F)(F)F)cc1 [T0901317, N-(2,2,2-trifluoroethyl)-N-[4-[2,2,2-trifluoro-1-hydroxy-1-(trifluoromethyl)ethyl]phenyl]-benzenesulfonamide] | dose-dependently increase the up-regulation of the endogenous alkaline phosphatase activity; also recorded: AP activity is up-regulated; also recorded: score well | induce AP activity to similar extents in all 4 MPC isolates tested; also recorded: induce AP activity independent of the MPC isolate
